“And” between values parts separate entries of the source, which are not always exact repeats. Equal values may be shown once. Read-outs that look alike come from different tables or passages of the source.
How the values were obtained:
[1] = Salt formation experiments / physical characteristics of solid forms; type: physicochemical; conditions: free base prepared from NVX-144.HCl; salt formation with acids
Method: Thus, a series of experiments was conducted to assess the preparation of NVX-144 salts of acids other than hydrochloric acid as possible novel compounds better suited to pharmaceutical preparations. […] As expected, NVX-144 base readily formed salts with strong organic acids.
Although oxalic acid co-crystals are rare, Trask et al. have reported a co-crystal of caffeine with oxalic acid (see Trask et al., “Pharmaceutical Cocrystallization: Engineering a Remedy for Caffeine Hydration,” Crystal Growth & Design, 5, 1013-21 (2005)).
Thus NVX-144 would not be expected to form a salt with oxalic acid, a relatively strong dicarboxylic acid.

[2] = Pharmacokinetic experiments in rats (IV, oral suspension, oral solution); type: in vivo; conditions: rat; for concentration at 0.5 h / concentration at 1 h / concentration at 4 h / concentration at 8 h: oral; for bioavailability: adjusted for dose
Method: The oral suspension formulation was prepared by suspending the test article in 5% PEG-200/95% of a 0.5% solution of methylcellulose. The concentration of the test article was such that a dosing volume of 10 mL/kg delivered the intended dose level. The oral solution formulations of NVX-144 and NVX-412 were prepared by dissolving the test article in 10% by volume dimethyl acetamide, followed by 60% by volume PEG-400, and then adding slowly a solution of 30% Captisol® in 50 mM lactic acid to provide the remaining 30% of volume. The concentration of the test article was such that a dosing volume of 10 mL/kg delivered the intended dose level. The IV formulation of NVX-412 was prepared by dissolving the test article in 10% by volume dimethyl acetamide, followed by 10% by volume PEG-400, and then adding slowly a solution of 10% Captisol® in 50 mM lactic acid to provide the remaining 80% of volume. The concentration of the test articles was such that a dosing volume of 2.5 mL/kg delivered the intended dose level. The doses administered were based on the body weight of each animal taken shortly before dosing. The formulations were used immediately after preparation.
A total of 15 rats were assigned to the study. Five groups of three male rats each comprised the study. Each group was treated once by oral gavage or intravenous injection via the tail vein as specified in Table 3 below.
The animals were fasted overnight prior to dosing and the feed returned approximately 2 hours post-dosing. The dose for each animal was based on the most recent body weight. Oral doses were administered by gavage. Animals received 10 mL/kg per single oral dose. Intravenous doses were administered by tail vein injection. The dose for each animal was based on the most recent body weight. Animals were dosed at 2.5 mL/kg per single intravenous dose.
Blood was collected from the animals in Groups 1 through 5 for pharmacokinetic analysis. Approximately 0.3 mL of blood was collected in potassium EDTA tubes via the orbital plexus at four time points (30 minutes, 1 hour, 4 hours, and 8 hours post-dose) from each rat treated by the oral route, and the blood samples were processed to prepare plasma. Blood was collected at four time points (5 minutes, 30 minutes, 1 hour, and 2 hours post-dose) from each rat treated by the intravenous route, and the blood samples were processed to prepare plasma. Animals were terminated (without necropsy) following their final sample collection.
The whole blood samples were centrifuged (˜1500×g) for a minimum of 10 minutes in a refrigerated centrifuge (set at ˜5° C.). Plasma was prepared and transferred within 30 minutes of blood collection/centrifugation to appropriately labeled tubes. The tubes were then frozen and stored in the dark at ≦−70° C. until analysis. The plasma samples were analyzed by LC-MS/MS to determine the plasma concentrations of NVX-144 and NVX-412. Pharmacokinetic analysis of the plasma concentration data was conducted using non-compartmental analysis with WinNonlin Version 4.1.

[3] = male, plasma, po, 20 mg/kg, Group 2, PO-Suspension 20 mg/kg, Mean N=3
[4] = male, plasma, po, 20 mg/kg, Group 2, PO-Suspension 20 mg/kg, individual animals
[5] = male, plasma, po, 20 mg/kg, Group 4, PO-Solution 20 mg/kg, Mean N=3
[6] = male, plasma, po, 20 mg/kg, Group 4, PO-Solution 20 mg/kg, individual animals
[7] = Group 2, PO-Suspension 20 mg/kg, Mean N=3, listed as NVX-144 Free Base
[8] = Group 2, PO-Suspension 20 mg/kg, individual animals, listed as NVX-144 Free Base
[9] = Group 4, PO-Solution 20 mg/kg, Mean N=3, listed as NVX-144 Free base
[10] = Group 4, PO-Solution 20 mg/kg, individual animals, listed as NVX-144 Free base

## O=C(NNc1nc2cc(F)ccc2n2cccc12)c1cnccn1 [NVX-144, N′-(7-fluoropyrrolo[1,2a]quinoxalin-4-yl)pyrazine-2-carbohydrazide, reference compound]
[1]
  basicity: very weak base
[2]; male, plasma, 20 mg/kg, Group 2, PO-Suspension 20 mg/kg, 0.5 hr, Mean
  concentration at 0.5 h: 479 ng/mL
[2]; male, plasma, 20 mg/kg, Group 2, PO-Suspension 20 mg/kg, 0.5 hr, individual animals
  concentration at 0.5 h: 436 ng/mL
[2]; male, plasma, 20 mg/kg, Group 2, PO-Suspension 20 mg/kg, 1 hr, Mean
  concentration at 1 h: 427 ng/mL
[2]; male, plasma, 20 mg/kg, Group 2, PO-Suspension 20 mg/kg, 4 hr, Mean
  concentration at 4 h: 227 ng/mL
[2]; male, plasma, 20 mg/kg, Group 2, PO-Suspension 20 mg/kg, 4 hr, individual animals
  concentration at 4 h: 270 ng/mL
[2]; male, plasma, 20 mg/kg, Group 2, PO-Suspension 20 mg/kg, 8 hr, Mean
  concentration at 8 h: 10.9 ng/mL
[2]; male, plasma, 20 mg/kg, Group 4, PO-Solution 20 mg/kg, 0.5 hr, Mean
  concentration at 0.5 h: 709 ng/mL
[2]; male, plasma, 20 mg/kg, Group 4, PO-Solution 20 mg/kg, 0.5 hr, individual animals
  concentration at 0.5 h: 691 ng/mL
[2]; male, plasma, 20 mg/kg, Group 4, PO-Solution 20 mg/kg, 1 hr, Mean
  concentration at 1 h: 643 ng/mL
[2]; male, plasma, 20 mg/kg, Group 4, PO-Solution 20 mg/kg, 1 hr, individual animals
  concentration at 1 h: 570 ng/mL
[2]; male, plasma, 20 mg/kg, Group 4, PO-Solution 20 mg/kg, 4 hr, Mean
  concentration at 4 h: 225 ng/mL
[2]; male, plasma, 20 mg/kg, Group 4, PO-Solution 20 mg/kg, 4 hr, individual animals
  concentration at 4 h: 289 ng/mL
[2]; male, plasma, 20 mg/kg, Group 4, PO-Solution 20 mg/kg, 8 hr, Mean
  concentration at 8 h: 31.5 ng/mL
[2]; [3]
  AUC: 1800 ng·h/mL
  AUC(0-inf): 1830 ng·h/mL
[2]; male, plasma, po, 20 mg/kg, Group 2, PO-Suspension 20 mg/kg, Mean N=3, read-out: Cmax
  Cmax: 487 ng/mL
[2]; male, plasma, po, 20 mg/kg, Group 2, PO-Suspension 20 mg/kg, Mean N=3, read-out: T ½ (converted)
  half-life: 1.4 h
[2]; male, plasma, po, 20 mg/kg, Group 2, PO-Suspension 20 mg/kg, Mean N=3, read-out: Tmax
  Tmax: 0.67 h
[2]; male, plasma, po, 20 mg/kg, Group 2, PO-Suspension 20 mg/kg, Mean N=3, versus mean IV AUCINF, read-out: Bioavailability
  bioavailability: 34.7%
[2]; [4]
  AUC: 1690 ng·h/mL
  AUC(0-inf): 1720 ng·h/mL
[2]; male, plasma, po, 20 mg/kg, Group 2, PO-Suspension 20 mg/kg, individual animals, read-out: Cmax
  Cmax: 436 ng/mL
[2]; male, plasma, po, 20 mg/kg, Group 2, PO-Suspension 20 mg/kg, individual animals, read-out: T ½ (converted)
  half-life: 1.66 h
[2]; male, plasma, po, 20 mg/kg, Group 2, PO-Suspension 20 mg/kg, individual animals, read-out: Tmax
  Tmax: 0.5 to 1 h
[2]; male, plasma, po, 20 mg/kg, Group 2, PO-Suspension 20 mg/kg, individual animals, versus mean IV AUCINF, read-out: Bioavailability
  bioavailability: 32.8%
[2]; [5]
  AUC: 2330 ng·h/mL
  AUC(0-inf): 2520 ng·h/mL
[2]; male, plasma, po, 20 mg/kg, Group 4, PO-Solution 20 mg/kg, Mean N=3, read-out: Cmax
  Cmax: 714 ng/mL
[2]; male, plasma, po, 20 mg/kg, Group 4, PO-Solution 20 mg/kg, Mean N=3, read-out: T ½ (converted)
  half-life: 1.6 h
[2]; male, plasma, po, 20 mg/kg, Group 4, PO-Solution 20 mg/kg, Mean N=3, read-out: Tmax
  Tmax: 0.67 h
[2]; male, plasma, po, 20 mg/kg, Group 4, PO-Solution 20 mg/kg, Mean N=3, versus mean IV AUCINF, read-out: Bioavailability
  bioavailability: 46.1%
[2]; [6]
  AUC: 2500 ng·h/mL
  AUC(0-inf): 2760 ng·h/mL
[2]; male, plasma, po, 20 mg/kg, Group 4, PO-Solution 20 mg/kg, individual animals, read-out: Cmax
  Cmax: 691 ng/mL
[2]; male, plasma, po, 20 mg/kg, Group 4, PO-Solution 20 mg/kg, individual animals, read-out: Tmax
  Tmax: 0.5 to 1 h
[2]; male, plasma, po, 20 mg/kg, Group 4, PO-Solution 20 mg/kg, individual animals, versus mean IV AUCINF, read-out: Bioavailability
  bioavailability: 52.6%
[2]; Group 2, PO-Suspension 20 mg/kg, 0.5 hr, individual animals, listed as NVX-144 Free Base
  plasma concentration: 428.07 ng/mL and 571.69 ng/mL
[2]; Group 2, PO-Suspension 20 mg/kg, 1 hr, individual animals, listed as NVX-144 Free Base
  plasma concentration: 282.56 ng/mL and 401.49 ng/mL and 597.75 ng/mL
[2]; Group 2, PO-Suspension 20 mg/kg, 4 hr, individual animals, listed as NVX-144 Free Base
  plasma concentration: 234.64 ng/mL and 175.82 ng/mL
[2]; Group 2, PO-Suspension 20 mg/kg, 8 hr, individual animals, listed as NVX-144 Free Base
  plasma concentration: 14.92 ng/mL and 12.33 ng/mL and 5.37 ng/mL
[2]; Group 2, PO-Suspension 20 mg/kg, Mean N=3
  AUC % Extrap: 1.32%
[2]; [7]
  AUCINF: 1826.45 ng·h/mL
  Cmax: 487.28 ng/mL
  T ½: 1.39 h
[2]; [8]
  AUC % Extrap: 2.08% and 1.48% and 0.4%
  AUCINF: 1789.00 ng·h/mL and 1965.88 ng·h/mL
  AUCall: 1762.55 ng·h/mL and 1958.03 ng·h/mL
  Cmax: 428.07 ng/mL and 597.75 ng/mL
  T ½: 1.49 h and 1.01 h
  Tmax: 0.5 h and 1.0 h
[2]; Group 2, PO-Suspension 20 mg/kg, individual animals, versus mean IV AUCINF, listed as NVX-144 Free Base
  bioavailability: 34.0% and 37.4%
[2]; Group 4, PO-Solution 20 mg/kg, 0.5 hr, individual animals, listed as NVX-144 Free Base
  plasma concentration: 610.62 ng/mL and 824.32 ng/mL
[2]; Group 4, PO-Solution 20 mg/kg, 1 hr, individual animals, listed as NVX-144 Free Base
  plasma concentration: 626.73 ng/mL and 731.54 ng/mL
[2]; Group 4, PO-Solution 20 mg/kg, 4 hr, individual animals, listed as NVX-144 Free Base
  plasma concentration: 163.62 ng/mL and 221.82 ng/mL
[2]; Group 4, PO-Solution 20 mg/kg, 8 hr, individual animals, listed as NVX-144 Free Base
  plasma concentration: 75.29 ng/mL and 5.57 ng/mL and 13.76 ng/mL
[2]; Group 4, PO-Solution 20 mg/kg, Mean N=3
  AUC % Extrap: 3.61%
[2]; [9]
  AUCINF: 2426.28 ng·h/mL
  Cmax: 713.93 ng/mL
  T ½: 1.56 h
[2]; [10]
  AUC % Extrap: 9.41% and 0.41% and 1.00%
  AUCINF: 1994.04 ng·h/mL and 2521.47 ng·h/mL
  AUCall: 1985.89 ng·h/mL and 2496.24 ng·h/mL
  Cmax: 626.73 ng/mL and 824.32 ng/mL
  T ½: 2.39 h and 1.01 h and 1.27 h
  Tmax: 0.5 h and 1.0 h
[2]; Group 4, PO-Solution 20 mg/kg, individual animals, versus mean IV AUCINF, listed as NVX-144 Free base
  bioavailability: 37.9% and 48.0%
[2]; administered as a solution or suspension
  oral absorption: moderate

Source: patent US8058437B2, “(Pyrroloquinoxalinyl) pyrazinecarbohydrazide-oxalic acid co-crystal for treatment of cancer and other diseases” (Novelix Pharmaceuticals, Inc., priority 2008, dated 2011)
